This is an account of results in ChEMBL document CHEMBL2380207, “Recent advances in natural products from plants for treatment of liver diseases” (Eur J Med Chem, 2013).

A word on the IC50: it is the concentration that inhibits the measured activity by half. A lower IC50 goes with inhibition by little substance.

The nature of this test: Inhibition of Hepatitis C virus protease. More on the design: species or system Hepacivirus hominis.

Molecules are shown by their SMILES.

`CC1Cc2cccc(O)c2C(=O)O1` (stereo unspecified) [MELLEIN] returned an IC50 of 35 µM.
